From patent US10662203B2, “Pyrido[2,3-b]indole compounds for the treatment and prophylaxis of bacterial infection” (Hoffmann-La Roche Inc., priority 2017, dated 2020)

How the values were obtained:
Assay type in all cases: cell-based
[1] = Cytotoxicity assay (HepG2, CellTiter-Blue cell viability); conditions: human; HepG2 cells, 3 days treatment; "*": the detection limit; read-out: CC50
Method: The cytotoxicity of compounds of present invention was assessed by HepG2 assay. HepG2 cells (ATCC HB-8065™) were seeded into 96-well plates (1.2×10^4 cells per well) and treated with compounds for 3 days, cell viability was measured at day 3 post compound treatment using the CellTiter-Blue® Cell Viability Assay (Promega, Cat. No. G8082). 20 μL of Cell titer blue buffer were added to each well of the cells, which were incubated for 3 hours at 37° C., and the fluorescence value was measured by a plate reader (Molecular Device SpectraMax M2). The CC50 value of each compound is plotted with GraphPad Prism using four parameter logistic equation.

[2] = test system: A. baumannii (ATCC17978); assay: 50% growth inhibitory concentration (IC50) determination assay; conditions: Acinetobacter baumannii, ATCC17978, A. baumannii ATCC17978; Iso-Sensitest broth; 0.098 = detection limit
Outline: (§1)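 Compounds were two-fold serially diluted (50 to 0.097 μM final) in Iso-Sensitest broth, with ~5×10^5 CFU/mL bacteria. Plates were incubated at 35±2° C and growth followed by OD600 every 20 min over 16 h to derive IC50.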

[3] = test system: K. pneumoniae (ATCC10031); assay: as above; conditions: Klebsiella pneumoniae, Iso-Sensitest broth, 0.098 = detection limit
Outline: as §1

[4] = test system: S. aureus (ATCC29213); assay: as above; conditions: Staphylococcus aureus, Iso-Sensitest broth, 0.098 = detection limit
Outline: as §1

## CNc1cc(F)c(F)c2c1[nH]c1ncc(-c3cnc4c(c3)c(=O)c(C(=O)O)cn4CC3COCCN3)c(N(C)C)c12 (stereo not shown) [Example 1.03]
[1]
  CC50 at 3 days: 38100 nM
[2]
  IC50: 0.437 µM
[3]
  IC50: < 0.098 µM
[4]
  IC50: < 0.098 µM

## CNc1cc(F)c(F)c2c1[nH]c1ncc(-c3cnc4c(c3)c(=O)c(C(=O)O)cn4CC3CCCN3)c(N3CCOCC3)c12 (stereo not shown) [Example 1.11]
[1]
  CC50 at 3 days: > 100000 nM
[2]
  IC50: 0.847 µM

## CCNc1cc(F)cc2c1[nH]c1ncc(-c3cnc4c(c3)c(=O)c(C(=O)O)cn4CC)c(-n3cc(CN)c(C(F)(F)F)n3)c12 [Example 1.15]
[1]
  CC50 at 3 days: > 100000 nM
[2]
  IC50: 0.403 µM
[3]
  IC50: < 0.098 µM
[4]
  IC50: < 0.098 µM

## CNc1cc(F)c(F)c2c1[nH]c1ncc(-c3cnc4c(c3)c(=O)c(C(=O)O)cn4C)c(N3CCC(F)(CN)C3)c12 (stereo not shown) [Example 1.23]
[1]
  CC50 at 3 days: > 100000 nM
[2]
  IC50: 0.507 µM
[3]
  IC50: < 0.098 µM
[4]
  IC50: < 0.098 µM

## CNCCn1cc(C(=O)O)c(=O)c2cc(-c3cnc4[nH]c5c(NC)cc(F)c(F)c5c4c3N(C)C)cnc21 [Example 1.26]
[1]
  CC50 at 3 days: 32500 nM
[2]
  IC50: 0.569 µM
[3]
  IC50: < 0.098 µM
[4]
  IC50: < 0.098 µM

## CNc1cc(F)c(F)c2c1[nH]c1ncc(-c3cnc4c(c3)c(=O)c(C(=O)O)cn4C)c(N3CCC(N)(C(F)(F)F)C3)c12 (stereo not shown) [Example 1.27]
[1]
  CC50 at 3 days: 28200 nM
[2]
  IC50: 0.602 µM
[4]
  IC50: < 0.098 µM

## CNc1cc(F)c(F)c2c1[nH]c1ncc(-c3cnc4c(c3)c(=O)c(C(=O)O)cn4CC3CCN(C)CC3)c(N(C)C)c12 [Example 1.32]
[1]
  CC50 at 3 days: 50100 nM
[2]
  IC50: 0.353 µM
[3]
  IC50: < 0.098 µM
[4]
  IC50: < 0.098 µM

## CNc1cc(F)c(F)c2c1[nH]c1ncc(-c3cnc4c(c3)c(=O)c(C(=O)O)cn4CC(C)(C)O)c(N3CCOCC3)c12 [Example 1.35]
[1]
  CC50 at 3 days: 76900 nM
[2]
  IC50: 0.663 µM
[3]
  IC50: < 0.098 µM
[4]
  IC50: < 0.098 µM

## CNc1cc(F)cc2c1[nH]c1ncc(-c3cnc4c(c3)c(=O)c(C(=O)O)cn4C(C)CO)c(N3CCOCC3)c12 (stereo not shown) [Example 1.45]
[1]
  CC50 at 3 days: > 100000 nM
[2]
  IC50: 0.472 µM
[3]
  IC50: < 0.098 µM
[4]
  IC50: < 0.098 µM

## CNc1cc(F)c(F)c2c1[nH]c1ncc(-c3cnc4c(c3)c(=O)c(C(=O)O)cn4C(C)CO)c(N3CCOCC3)c12 (stereo not shown) [Example 1.51]
[1]
  CC50 at 3 days: > 100000 nM
[2]
  IC50: 0.533 µM
[3]
  IC50: < 0.098 µM
[4]
  IC50: < 0.098 µM

## CNc1cc(F)cc2c1[nH]c1ncc(-c3cnc4c(c3)c(=O)c(C(=O)O)cn4C)c(N3CCC(CO)C3)c12 (stereo not shown) [Example 1.54]
[1]
  CC50 at 3 days: > 100000 nM
[2]
  IC50: 0.461 µM
[3]
  IC50: < 0.098 µM
[4]
  IC50: < 0.098 µM

## CNc1cc(F)cc2c1[nH]c1ncc(-c3cnc4c(c3)c(=O)c(C(=O)O)cn4Cc3cnccn3)c(N3CCOCC3)c12 [Example 1.58]
[1]
  CC50 at 3 days: > 100000 nM
[2]
  IC50: 0.643 µM
[4]
  IC50: < 0.098 µM

## CNc1cc(F)cc2c1[nH]c1ncc(-c3cnc4c(c3)c(=O)c(C(=O)O)cn4C)c(N3CCC(C)(O)C3)c12 (stereo not shown) [Example 1.59]
[1]
  CC50 at 3 days: 27900 nM
[2]
  IC50: 0.658 µM
[3]
  IC50: < 0.098 µM
[4]
  IC50: < 0.098 µM

## [2H]C([2H])([2H])Nc1cc(F)c(F)c2c1[nH]c1ncc(-c3cnc4c(c3)c(=O)c(C(=O)O)cn4C3CCNC3)c(N(C)C)c12 (stereo not shown) [Example 1.64]
[1]
  CC50 at 3 days: > 100000 nM
[2]
  IC50: 0.32 µM
[3]
  IC50: < 0.098 µM
[4]
  IC50: < 0.098 µM

## CNc1cc(F)c(F)c2c1[nH]c1ncc(-c3cnc4c(c3)c(=O)c(C(=O)O)cn4C)c(N3CCCC(CN(C)C)C3)c12 (stereo not shown) [Example 1.80]
[1]
  CC50 at 3 days: 27500 nM
[2]
  IC50: 0.132 µM
[3]
  IC50: < 0.098 µM
[4]
  IC50: < 0.098 µM

## CNc1cc(F)c(F)c2c1[nH]c1ncc(-c3cnc4c(c3)c(=O)c(C(=O)O)cn4C)c(N3C[C@H](O)[C@@H](F)C3)c12 [Example 1.82]
[1]
  CC50 at 3 days: > 100000 nM
[2]
  IC50: 0.748 µM
[3]
  IC50: < 0.098 µM
[4]
  IC50: < 0.098 µM

## CNc1cc(F)c(F)c2c1[nH]c1ncc(-c3cnc4c(c3)c(=O)c(C(=O)O)cn4C)c(N3C[C@H](C)[C@@H](O)C3)c12 [Example 1.83]
[1]
  CC50 at 3 days: 26400 nM
[2]
  IC50: 0.519 µM
[3]
  IC50: < 0.098 µM
[4]
  IC50: < 0.098 µM
